Earlier results in patent US5693668A, “Acetylcholinesterase inhibitors” (priority 1989, dated 1997).

Conditions: Bronaugh and Stewart, J. Pharm. Sci. 1984; cited from earlier work

Q: Which “effect on integrity or permeation characteristics of the skin” value does the source give for “polyethylene glycol 20 Oleyl ether [PEG 20 oleyl ether]” here?
A: not found to affect the integrity or the permeation characteristics of the skin
